Key:
SB.mhdgc-1 [1] = assay: viability at highest tested concentration (MAXR) relative to DMSO; higher = less cytotoxic; settings: SB.mhdgc-1 (hereditary c.1380delA CDH1 gastric cancer)
In short: (§1)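 Patient-derived gastric cancer cells, hereditary or sporadic, were plated at 500 cells in 5 μL medium per well of a 1536-well plate and given 23 nL of compound in DMSO by pintool across 11 threefold dilutions. The top concentration was recorded for each compound. After 48 h, CellTiter-Glo was added for 30 min at room temperature and luminescence was read on a ViewLux. Values are viability normalised to DMSO, taken either at the highest concentration or as trapezoidal area under the curve.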

SB.msgc-1 [2] = assay: as above; settings: SB.msgc-1 (sporadic gastric cancer)
In short: as §1

SB.mhdgc-1 [3] = assay: area under the dose-response curve of % viability (trapezoidal, 11 doses) (% viability x log10 concentration); higher = less cytotoxic; settings: SB.mhdgc-1 (hereditary c.1380delA CDH1 gastric cancer)
In short: as §1

SB.msgc-1 [4] = assay: as above; settings: SB.msgc-1 (sporadic gastric cancer)
In short: as §1

SMILES | viability (SB.mhdgc-1 [1]) [%] | viability (SB.msgc-1 [2]) [%] | area under the dose-response curve (SB.mhdgc-1 [3]) | area under the dose-response curve (SB.msgc-1 [4])
c1ccc(CNc2nc(NCc3ccccc3)c3ccccc3n2)cc1 (top concentration 46.0829 µM) | 0.751 | 19 | 448 | 456
c1ccc(CNc2nc(N3CCOc4ccccc43)nc3c2CCCC3)cc1 (top concentration 46.0829 µM) | 98.1 | 61.9 | 550 | 480
CC(C)Oc1ccc(C(=O)N[C@H](CNC(=O)CN(C)C)Cc2ccc(-c3cn4cccc([C@H](C)O)c4n3)cc2)cc1Cl (top concentration 46.0829 µM) | 13.2 | 38.2 | 397 | 364
C=CC(=O)Nc1cccc(Nc2nc(NC3CCC(N(C)C)CC3)nc3c2ncn3C(C)C)c1 (stereo unspecified) (top concentration 46.0829 µM) | 2.91 | 49.4 | 163 | 344
CC(O)(C#Cc1ccc2c(c1)N(c1nc(N)ncc1Cl)CC2)c1nccs1 (stereo unspecified) (top concentration 46.0829 µM) | 41.6 | 56.3 | 453 | 486
CC1(C)Cc2c(sc(NC(=S)NC(=O)c3ccccc3)c2C(=O)O)CO1 (top concentration 46.0829 µM) | 23.8 | 47.7 | 480 | 502
C=CC(=O)Nc1cc(NC(=O)c2ccc(C)c(NC(=O)c3ccno3)c2)cc(C(F)(F)F)c1 (top concentration 46.0829 µM) | 4.49 | 36.4 | 521 | 504
Cc1ccc(CN2CCNCC2)cc1NC(=O)CNc1ccc(F)c(F)c1 (top concentration 46.0829 µM) | 48.3 | 32.8 | 407 | 488
Cc1cnc(-c2cc(N3CCN(C(=O)CC[S+](C)(=O)[O-])CC3)ncc2Cl)c(C)c1 (top concentration 46.0829 µM) | 58.1 | 92.6 | 447 | 516
Cc1ccc(/C=N/NC(=O)c2ccccc2Oc2ccccc2)o1 (top concentration 46.0829 µM) | 76.1 | 71.4 | 509 | 518
Cc1n[nH]c2ccc(-c3cncc(OC[C@@H](N)Cc4c[nH]c5ccccc45)c3)cc12 (top concentration 46.0829 µM) | 8.18 | 29 | 399 | 392
CCCCOc1ccc(C(=O)Nc2ccc(F)cc2F)cc1 (top concentration 46.0829 µM) | 114 | 58.2 | 522 | 348
CCN(CC)CCCCNc1ncc2c(n1)N(C)C(=O)N(c1c(Cl)c(OC)cc(OC)c1Cl)C2 (top concentration 46.0829 µM) | 30.5 | 41.3 | 456 | 513
Cc1cn2cc(C(=O)N(C)CCO)cc(N[C@@H]3CCOc4cccc(C)c43)c2n1 (top concentration 46.0829 µM) | 121 | 108 | 576 | 505
CNC(=O)c1ccc(-c2cnc3ncc(Cc4ccc5ncccc5c4)n3n2)cc1F (top concentration 46.0829 µM) | 72.6 | 81.2 | 521 | 479
CNC(=O)c1ccc(Nc2cc(Nc3ccccc3[S+](=O)([O-])C(C)C)c3cc[nH]c3n2)nc1 (top concentration 46.0829 µM) | 14.3 | 15.6 | 517 | 480
CNc1nc(-c2ccc3c(N)n[nH]c3c2)cc(N2C[C@@H](C(=O)NC3CCCCC3)CC[C@H]2C)n1 (top concentration 46.0829 µM) | 8.83 | 14.5 | 376 | 423
COc1ccccc1N1CCN(CCN(C(=O)C2CCCCC2)c2ccccn2)CC1 (top concentration 46.0829 µM) | 96.2 | 89.5 | 505 | 534
COc1cc(N2CCC(C(N)=O)CC2)ccc1Nc1nc(N)c(Cl)c(Nc2ccccc2[S+](=O)([O-])C(C)C)n1 (top concentration 46.0829 µM) | 27.7 | 28.1 | 417 | 411
COc1cc(N2CCN(C)CC2)ccc1Nc1nc(N)c(C(=O)c2c(Cl)cccc2Cl)s1 (top concentration 46.0829 µM) | 35.6 | 53.8 | 457 | 478
COc1cccc2c(NCc3ccccc3)nc(-n3c(N)nc4ccccc43)nc12 (top concentration 46.0829 µM) | 1.2 | 0.276 | 425 | 424
COC1=CC(=CC(=C1)C2=CC=C3N=CC\4=C(N(C(=O)\C=C4)C5=CC(=C(C=C5)N6CCNCC6)C(F)(F)F)C3=C2)OC (top concentration 46.0829 µM) | 2.73 | 16.9 | 376 | 453
COc1cc(NC(=O)c2ccc(-c3ccc(Cl)cc3)o2)cc(OC)c1 (top concentration 46.0829 µM) | 3.96 | 3.84 | 379 | 457
COc1cc(-c2nn(C3CCC(N4CCN(C(C)=O)CC4)CC3)c3ncnc(N)c23)ccc1NC(=O)c1cc2ccccc2n1C (stereo unspecified) (top concentration 46.0829 µM) | 3.1 | 3.58 | 460 | 442
COc1cc(C(=O)NC2CCN(C)CC2)ccc1Nc1ncc2c(n1)N(C1CCCC1)CCC(=O)N2C(C)C (top concentration 46.0829 µM) | 4.01 | 28.1 | 402 | 533

SMILES | viability (SB.mhdgc-1 [1]) [%] | viability (SB.msgc-1 [2]) [%] | area under the dose-response curve (SB.mhdgc-1 [3]) | area under the dose-response curve (SB.msgc-1 [4])
COc1ccc(N(C(=O)Oc2c(C)cccc2C)c2ccnc(Nc3ccc(N4CCN(C)CC4)cc3)n2)c(OC)c1 (top concentration 46.0829 µM) | 47.4 | 39.9 | 350 | 417
COCCOc1ccc2c(c1)ncn2-c1ccc2cccc(N3CCC(N)CC3)c2n1 (top concentration 46.0829 µM) | 3.21 | 43.4 | 424 | 446
C[C@H](c1ccc(F)cc1CCCC(=O)O)N(c1cc(F)ccc1F)[S+](=O)([O-])c1ccc(Cl)cc1 (top concentration 46.0829 µM) | 40.2 | 70.5 | 450 | 509
C[C@@H](N)c1ccc(C(=O)Nc2ccnc3[nH]ccc23)cc1 (top concentration 46.0829 µM) | 12.7 | 39.3 | 402 | 474
C[C@H](NC(=O)c1sccc1OCc1ccc(Cl)cc1)c1ccccc1 (top concentration 46.0829 µM) | 45.7 | 43.3 | 435 | 491
C[C@H](NC(=O)[C@@H](O)c1cc(F)cc(F)c1)C(=O)N[C@@H]1C(=O)N(C)c2ccccc2-c2ccccc21 (top concentration 46.0829 µM) | 88.9 | 97.4 | 500 | 522
C[C@](Cc1c[nH]c2ccccc12)(NC(=O)OC1C2CC3CC(C2)CC1C3)C(=O)NC[C@H](NC(=O)CCC(=O)O)c1ccccc1 (stereo partly specified) (top concentration 46.0829 µM) | 59.9 | 101 | 498 | 513
C[C@]\1(CCS\C(=N1)N)C2=CC(=C(F)C=C2F)C3=CN=CN=C3 (top concentration 46.0829 µM) | 33.3 | 44.7 | 464 | 500
C[N]1C=C(C=N1)C2=CC=C3N=CC\4=C(N(C(=O)\C=C4)C5=CC6=C(CCN6C(=O)C=C)C=C5)C3=C2 (top concentration 46.0829 µM) | 1.79 | 41.1 | 381 | 496
CC(=O)N1CCN(c2ccc(OCc3nn(C)c(C)c3-c3cccc4c(CCCOc5cc(C)c(Cl)c(C)c5)c(C(=O)O)n(Cc5cccnc5)c34)cc2)CC1 (top concentration 46.0829 µM) | 48.8 | 26.9 | 425 | 498
CC(=O)N1CCN(c2ccc(OCc3nn(C)c(C)c3-c3cccc4c(CCCOc5cccc6ccccc56)c(C(=O)O)n(Cc5cccnc5)c34)cc2)CC1 (top concentration 46.0829 µM) | 0.82 | 2.94 | 321 | 355
O=C(NCC1CCOCC1)c1cnc(Nc2ccc(Cl)cc2Cl)nc1C(F)(F)F (top concentration 46.0829 µM) | 7.1 | 6.36 | 519 | 539
O=C(c1ccc(F)cc1)N1CCC[C@H](c2nc(-c3ccc(F)cc3)no2)C1 (top concentration 46.0829 µM) | 76.5 | 104 | 500 | 582
NC(=O)c1noc([C@H](CCCC2CCCCC2)CC(=O)NO)n1 (top concentration 46.0829 µM) | 41 | 69.5 | 570 | 563
NC\1=N\C(=O)N(\C=C1F)[C@H]2C[C@H](O)[C@@H](CO)O2 (top concentration 46.0829 µM) | 32.6 | 47.4 | 229 | 369
N[S+]([O-])(=O)C1=CC=C(NC/2=C/C(=O)C3=CC=CC=C3C2=O)C=C1 (top concentration 46.0829 µM) | 0.53 | 34.2 | 301 | 500
O=C(NC1CC1)c1cccc(-c2ccc3c(NC(=O)C4CC4)n[nH]c3c2)c1 (top concentration 46.0829 µM) | 22.1 | 34.6 | 289 | 398
O=C1NCCc2[nH]c(-c3ccncc3)cc21 (top concentration 46.0829 µM) | 79.8 | 51 | 472 | 450
O=C(O)C1CCCN(CCC=C(c2ccccc2)c2ccccc2)C1 (stereo unspecified) (top concentration 46.0829 µM) | 47.8 | 60.3 | 506 | 523
O=[S+]([O-])(O)c1ccc2cc(/N=N/c3cc([S+](=O)([O-])O)c4cccnc4c3O)ccc2c1 (top concentration 46.0829 µM) | 35.2 | 36.3 | 509 | 513
Oc1ccc(C2CCN(c3ccnc4ccccc34)CC2)cc1O (top concentration 46.0829 µM) | 43.7 | 74.5 | 408 | 507
OC1CCC(Nc2ncc3nc(Nc4c(F)cc(F)cc4F)n([C@@H]4CCOC4)c3n2)CC1 (stereo partly specified) (top concentration 46.0829 µM) | 92.7 | 97 | 505 | 502
OCCCNc1cc(-c2ccnc(Nc3cccc(Cl)c3)n2)ccn1 (top concentration 46.0829 µM) | 23.2 | 38.1 | 360 | 369
O=[N+]([O-])c1ccc(Nc2ccccc2-c2ccccc2)c2nonc12 (top concentration 46.0829 µM) | 35.7 | 42.5 | 423 | 436

From the supplement of paper PMC5412046
